Assay [1] addresses T1, Lipoprotein lipase (LPL) (Bos taurus, UniProt P11151).
T1 construct: Dr. Gunilla Olivecrona, Umea University (gift)
T1 sequence (P11151 29-478): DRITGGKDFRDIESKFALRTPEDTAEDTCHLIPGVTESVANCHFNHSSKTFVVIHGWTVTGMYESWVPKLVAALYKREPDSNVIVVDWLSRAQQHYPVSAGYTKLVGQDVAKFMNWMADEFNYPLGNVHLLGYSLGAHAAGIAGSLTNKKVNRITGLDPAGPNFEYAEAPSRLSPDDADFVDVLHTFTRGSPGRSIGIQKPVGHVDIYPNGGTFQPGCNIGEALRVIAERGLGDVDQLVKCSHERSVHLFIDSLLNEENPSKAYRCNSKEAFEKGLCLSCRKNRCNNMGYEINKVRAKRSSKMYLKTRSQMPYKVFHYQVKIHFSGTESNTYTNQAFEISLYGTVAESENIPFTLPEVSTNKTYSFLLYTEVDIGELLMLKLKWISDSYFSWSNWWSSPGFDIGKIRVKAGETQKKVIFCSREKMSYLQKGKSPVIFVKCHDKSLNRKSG
The experiment in a line: Lipoprotein lipase (LPL) inhibition assay, 3H-triolein/intralipid substrate. The format is biochemical. The settings on record: read-out: LPL inhibition (% inh. at 50 μM). From the text: Lipoprotein Lipase (LPL) [Classified as EC 3.1.1.34 in accordance with the Recommendations of the Nomenclature Committee of the International Union of Biochemistry and Molecular Biology (available on the World Wide Web at the following address: http://www.chem.qmw.ac.uk/iubmb/enzyme/)]
Materials. The lipoprotein lipase employed was obtained from Dr. Gunilla Olivecrona of Umea University, Sweden. ^3H-triolein (TO) from Amersham, Buckinghamshire, U.K., cat No. TRA191; 5-20 Ci/mmol dissolved in toluene. Intralipid is from Kabi-Fresenius). Apo CII was obtained from PMSF-treated plasma from overnight fasted rats. All other reagents are of commercial grade and obtained from various commercial sources.
Methods. The preparation of the substrate is as follows:
25 μl of ^3H-Triolein evaporated under a gentle stream of N2 in a 27° C. room in 4 ml chromacol glass followed by the addition of 1 ml 10% intralipid. This is mixed and sonicated on ice for 5 minutes (50% pulse mode). This can be kept for 1 week at 4° C.
100 μl assay medium (0.3M Tris-Cl, 0.2M NaCl, 0.2 mg heparin/ml and 120 mg BSA/ml (fraction V, Sigma no. 3401, pH 8.5))
All mixed in a 13×100 mm glass tube and incubated for at least 5 minutes.
2. Add 5 μl LPL (of a solution containing 500 mU/mg)
Mix and incubate for 30 minutes at 25° C.
3. The reaction is stopped with 3.25 ml of a solution containing Methanol:chloroform:heptan 10:9:7. Add 1.05 ml buffer (100 mM Boric acid, 100 mM potassium carbonate pH 10.5) and mix 10 seconds per vial.
5. Take 1 ml of the upper phase+10 ml scintillation fluid and mix
6. Scintillation count for 5 minutes per vial.

Assay [2] deals with T2, Hormone-sensitive lipase (HSL) (Homo sapiens, UniProt Q05469).
T2 sequence (Q05469 1-1076): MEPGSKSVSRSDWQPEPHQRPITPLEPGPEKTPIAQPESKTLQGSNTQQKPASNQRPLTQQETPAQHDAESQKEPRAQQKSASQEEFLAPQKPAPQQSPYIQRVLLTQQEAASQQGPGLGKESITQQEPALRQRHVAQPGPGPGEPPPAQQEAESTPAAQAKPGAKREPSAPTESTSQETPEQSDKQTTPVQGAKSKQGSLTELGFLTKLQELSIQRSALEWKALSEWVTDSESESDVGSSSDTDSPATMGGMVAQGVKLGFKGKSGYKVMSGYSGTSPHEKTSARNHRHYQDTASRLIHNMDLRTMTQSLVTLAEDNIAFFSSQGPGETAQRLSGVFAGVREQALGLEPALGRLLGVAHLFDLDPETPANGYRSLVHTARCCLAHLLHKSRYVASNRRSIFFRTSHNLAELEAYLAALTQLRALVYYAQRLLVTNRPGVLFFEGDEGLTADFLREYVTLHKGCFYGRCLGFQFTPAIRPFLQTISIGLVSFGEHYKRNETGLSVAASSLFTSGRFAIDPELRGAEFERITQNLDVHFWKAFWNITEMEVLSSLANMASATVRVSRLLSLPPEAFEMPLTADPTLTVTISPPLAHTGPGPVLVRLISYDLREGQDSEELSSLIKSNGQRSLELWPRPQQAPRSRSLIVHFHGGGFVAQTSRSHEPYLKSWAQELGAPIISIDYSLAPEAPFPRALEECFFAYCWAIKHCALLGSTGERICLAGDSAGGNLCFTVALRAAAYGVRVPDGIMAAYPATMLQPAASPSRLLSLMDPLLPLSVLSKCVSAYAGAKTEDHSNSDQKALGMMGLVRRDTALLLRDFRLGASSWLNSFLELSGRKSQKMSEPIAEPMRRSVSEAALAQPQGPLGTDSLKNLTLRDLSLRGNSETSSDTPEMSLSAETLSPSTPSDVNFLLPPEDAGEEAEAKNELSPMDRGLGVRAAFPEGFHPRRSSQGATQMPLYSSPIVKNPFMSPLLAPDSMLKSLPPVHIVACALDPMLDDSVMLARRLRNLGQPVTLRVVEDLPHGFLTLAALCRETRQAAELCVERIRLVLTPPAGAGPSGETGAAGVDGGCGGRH
The experiment in a line: Hormone-sensitive lipase (HSL) inhibition assay, 3H-labeled triolein or MOME substrate. In kind it is biochemical. The text has this:
Hormone-sensitive lipase (HSL) [classified as a triacylglycerol lipase, EC 3.1.1.3, in accordance with the Recommendations of the Nomenclature Committee of the International Union of Biochemistry and Molecular Biology (available on the World Wide Web at the following address: http://www.chem.qmw.ac.uk/iubmb/enzyme/)]
Materials. The Hormone-sensitive lipase employed was provided by Dr. Cecilia Holm of Lund University, Sweden, or produced and purified by Novo Nordisk (NN) using the reagents and protocols employed by Dr. Holm. The substrates used are: ^3H-labeled triolein (TO) from Amersham, Buckinghamshire, U.K. cat No. TRA191; 5-20 Ci/mmol dissolved in toluene, triolein (Sigma, Cat. No. T-1740) and mono-oleoyl-2-O-mono-oleylglycerol (MOME) synthesized at (NN) using the protocols provided by Dr. Cecilia Holm, Lund University, Sweden. Phosphatidyl choline (PC) and phosphatidyl inositol (PI) are from Sigma (St Luis Mo., cat. Nos. P-3556 and P-5954, respectively). All other reagents are of commercial grade and obtained from various commercial sources.
Methods. The preparation of the substrates is as follows:
TO: 30 μl PC:PI (20 mg/ml solution of PC:PI 3:1 prepared in chloroform)+128 μl cold TO+15 μl ^3H-TO
MOME: 30 μl PC:PI+100 μl cold MOME+200 μl ^3H-MOME
They are then evaporated under a gentle stream of N2 followed by 20-30 minutes in a Speedvac™ apparatus to ensure the absence of residual solvent.
The samples are prepared as follows:
Samples/controls: 78 μl PED-BSA+20 μl inhibitor (various concentrations)+2 μl HSL (undiluted 0.12 mg/ml). If no inhibitors are being tested, the reaction contains 98 μl PED-BSA+2 μl HSL.
The samples are put on ice and then sonicated as follows:
With TO as substrate, add 2 ml potassium buffer (0.1M potassium phosphate, pH 7) and then sonicate twice for 1 minute, with a 1-minute interval between cycles. Add an additional 1 ml potassium buffer and sonicate 4 times for 30 seconds, with a 30 second interval in between cycles. To finish, add 1 ml BSA 20%-in potassium buffer, mix by inversion and store on ice until use.
With MOME as substrate: add 2 ml potassium buffer and then sonicate twice for 1 minute, with a 1 minute interval between cycles. Add 1.6 ml potassium buffer and sonicate 4 times for 30 seconds, with a 30-second interval between cycles. To finish, add 0.4 ml BSA 20%-buffer, mix by inversion and store on ice until use.
The enzyme reaction is run at 37° C. The substrate mix is added to the various reactions at 10 second intervals, incubated for 30 minutes in a water bath and then stopped with 3.25 ml of a solution containing CH3OH:CHCl3:heptane (10:9:7). After the addition of 1.05 ml potassium buffer pH10.5, the sample is vortexed thoroughly and centrifuged for 20 min at 2000 r.p.m. One ml of the upper phase is added to 10 ml scintillation fluid, and mixed thoroughly by shaking.
The samples are then counted, 5 min per vial, in a scintillation counter.

Where [3] appears, read: read-out: HSL inhibition (IC50).

Counter-ions that a name gives are not always drawn. Like-named read-outs stand apart in the source and are kept apart here.

On to `O=C(NN1CCc2ccccc2C1)Oc1ccccc1F` [Example 15, (3,4-Dihydro-1H-isoquinolin-2-yl)-carbamic Acid 2-fluoro-phenyl Ester], for which the inhibition (usually the percentage by which the read-out fell short of the control) at 50 µM in assay [1] turned out to be 0%. The IC50 – broadly, the concentration at which inhibition is half-maximal – in assay [2] (setting [3]) came out at 1500 nM.

`COc1cc2c(cc1OC)CN(NC(=O)Oc1ccc(Cl)cc1)CC2` [Example 16, (6,7-Dimethoxy-3.4-dihydro-1H-isoquinolin-2-yl)-carbamic Acid 4-chloro-phenyl Ester]: the inhibition at 50 µM in assay [1] turned out to be 0%. The IC50 in assay [2] (setting [3]) came to 1400 nM.

For `Nc1ccc(OC(=O)NN2CCc3ccccc3C2)cc1` [Example 18, (3,4-Dihydro-1H-isoquinolin-2-yl)-carbamic Acid 4-amino-phenyl Ester Hydrochloride], the inhibition at 50 µM in assay [1] was determined as 0%. The IC50 in assay [2] (setting [3]) amounted to 7700 nM.

As for `CCCc1ccc(OC(=O)NN2CCc3ccccc3C2)cc1` [Example 20, (3,4-Dihydro-1H-isoquinolin-2-yl)-carbamic Acid 4-propyl-phenyl Ester], the inhibition at 50 µM in assay [1] worked out at 4%. The IC50 in assay [2] (setting [3]) amounted to 240 nM.

Turning to `CN(C(=O)Oc1ccc(Cl)cc1)N1CCc2ccccc2C1` [Example 21, (3,4-Dihydro-1H-isoquinolin-2-yl)-methyl-carbamic Acid 4-chloro-phenyl Ester], the inhibition at 50 µM in assay [1] worked out at 5%. The IC50 in assay [2] (setting [3]) was greater than 10000 nM.

On to `CC1c2ccccc2CCN1NC(=O)Oc1ccc(Cl)cc1` (stereo not shown) [Example 22, (1-Methyl-3,4-dihydro-1H-isoquinolin-2-yl)-carbamic Acid 4chloro-phenyl Ester], for which, in assay [1], the inhibition at 50 µM is 10%. Besides, the IC50 in assay [2] (setting [3]) was found to be 30 nM.

Regarding `O=C(NN1CCc2ccccc2C1)Oc1ccc(Cc2ccccc2)cc1` [Example 27], the inhibition at 50 µM in assay [1] was found to be 5%. Half-maximal inhibition in assay [2] (IC50) was put at 90 nM.

Take `CCc1ccc(OC(=O)NN2CCc3ccccc3C2)cc1` [Example 28]: the inhibition at 50 µM in assay [1] came to 3%. Further, the IC50 in assay [2] (setting [3]) is 70 nM.

Regarding `O=C(NN1CCc2ccccc2C1)Oc1ccc(OCc2ccccc2)cc1` [Example 29], the inhibition at 50 µM in assay [1] was determined as 0%. Further, the IC50 in assay [2] (setting [3]) was 2600 nM.

Take `CCCCOc1ccc(OC(=O)NN2CCc3ccccc3C2)cc1` [Example 30]: in assay [1], the inhibition at 50 µM was 6%. Further, the IC50 in assay [2] (setting [3]) was 3800 nM.

`CCC(C)(C)c1ccc(OC(=O)NN2CCc3ccccc3C2)cc1` [Example 31]: the inhibition at 50 µM in assay [1] was 1%. Further, in assay [2] (setting [3]), the IC50 is greater than 10000 nM.

`CC(C)(C)c1ccc(OC(=O)NN2CCc3ccccc3C2)cc1` [Example 32]: the inhibition at 50 µM in assay [1] was found to be 0%. In assay [2] (setting [3]), the IC50 is greater than 10000 nM.

For the compound `CCC(C)c1ccc(OC(=O)NN2CCc3ccccc3C2)cc1` (stereo not shown) [Example 33], in assay [1], the inhibition at 50 µM was found to be 2%. In assay [2] (setting [3]), the IC50 was found to be 170 nM.

Regarding `CCOC(=O)c1ccc(OC(=O)NN2CCc3ccccc3C2)cc1` [Example 35], the inhibition at 50 µM in assay [1] was 0%. Also, in assay [2] (setting [3]), the IC50 was greater than 10000 nM.

On to `CCCCCOc1ccc(OC(=O)NN2CCc3ccccc3C2)cc1` [Example 37], for which the inhibition at 50 µM in assay [1] was 0%. In addition, the IC50 in assay [2] (setting [3]) was 3900 nM.

`O=C(NN1CCc2ccccc2C1)Oc1ccc(Oc2ccccc2)cc1` [Example 38]: the inhibition at 50 µM in assay [1] was 0%. In addition, in assay [2] (setting [3]), the IC50 came to 330 nM.

For the compound `CCCOc1ccc(OC(=O)NN2CCc3ccccc3C2)cc1` [Example 39], in assay [1], the inhibition at 50 µM amounted to 2%. For the same compound, the IC50 in assay [2] (setting [3]) amounted to 2500 nM.

Take `O=C(NN1CCc2ccccc2C1)Oc1ccc(OC(F)(F)F)cc1` [Example 40]: the inhibition at 50 µM in assay [1] came to 1%. In addition, the IC50 in assay [2] (setting [3]) is 3400 nM.

In the case of `COC(=O)Cc1ccc(OC(=O)NN2CCc3ccccc3C2)cc1` [Example 42], the inhibition at 50 µM in assay [1] was determined as 6%. The IC50 in assay [2] (setting [3]) came out at 40 nM.

`O=C(NN1CCc2ccccc2C1)Oc1ccc(C2CCCCC2)cc1` [Example 43]: in assay [1], the inhibition at 50 µM was 6%. Besides, in assay [2] (setting [3]), the IC50 is greater than 10000 nM.

Source of the values: patent US20020082254A1, “Compounds for treating disorders where a decreased level of plasma FFA is desired” (priority 2000, published 2002).
